Experiment [1] concerns the target T1, DNA topoisomerase II cleavage complexes in K562 cells (Homo sapiens, UniProt P11388).
T1 construct: endogenous in cells; host or cells: K562 cells
The experiment is described as follows: Modified ICE bioassay in K562 cells. It counts as cell-based. Conditions: for induction of DNA topoisomerase II cleavage complexes: 20 μM. The procedure: (§1) After flash-freezing and thawing at 37° C., the DNA was sheared by passage through a 251/2 G needle. […] The pellet was dissolved in 200 μl of 10 mM Tris-HCl (pH 8.0) 1 mM EDTA buffer, the DNA was quantified and 5.6 μg of DNA was analyzed on a Western blot with a mouse anti-human DNA topoisomerase IIα antibody (DAKO, Glostrup, Denmark) to detect DNA topoisomerase IIα-bound DNA (11).
(§2) However, doxorubicin is an intercalative DNA topoisomerase II poison that induces DNA topoisomerase II cleavage with different sequence site-selectivity (Capranico et al., 1990) and that also is associated with leukemia as a treatment complication, albeit less often (Sandoval et al., 1993).

Experiment [2] addresses DNA topoisomerase II cleavage complexes in CEM cells (Homo sapiens, UniProt P11388). The experiment is described as follows: Modified ICE (in vivo complex of enzyme) bioassay in CEM cells. As to conditions: 20 μM, 2 hours.
Experiment [3] addresses human DNA topoisomerase IIα (Homo sapiens, UniProt P11388). The experiment is described as follows: DNA topoisomerase II in vitro cleavage assay. Conditions: for cleavage at MLL bcr position 6588 over cleavage without drug (enzyme-only): drug at 20 μM, 10 min 37° C.
Experiment [4] has as its target T2, DNA topoisomerase II covalent complexes with MLL and other sequences in CD34+ cells (Homo sapiens, UniProt P11388).
T2 construct: endogenous in cells; host or cells: primary human bone marrow CD34+ cells, expanded ex vivo
The experiment is described as follows: Immunoaffinity purification, DOP amplification and real-time PCR of DNA topoisomerase IIα-bound DNA. It counts as cell-based. A general note: Real-time PCR tracks product formation cycle by cycle.

Experiment [5] deals with T3, DNA topoisomerase II cleavage complexes with the MLL bcr in CD34+ cells (Homo sapiens, UniProt P11388).
T3 construct: endogenous in cells; host or cells: primary human bone marrow CD34+ cells, expanded ex vivo
The experiment is described as follows: MLL bcr oligonucleotide microarray (XEOCHIP) of DNA topoisomerase II-bound DNA. As to conditions: 100 μM, Q-Q plot. It is filed as cell-based. An excerpt:
Employing XEOCHIP™ technology (Xeotron, Houston, Tex.), a first generation MLL bcr oligonucleotide array containing replicate slots of each of 162 probes was created. The 162 probes included 73 probes for the non-repetitive MLL bcr sequences, 8 probes for the Alu region between nucleotide positions 663-1779 in the MLL bcr, 57 probes for MLL exon 25 which is unaffected by the translocations, and 24 probes for 9 bacterial control genes (see Tables 2 and 3; Tables 4 and 5 provide another example of a series of oligonucleotides that can be employed in a microarray). The 8.3 kb MLL bcr is represented by replicates of each of the 73 50 mers at average intervals of 115 bases to span the bcr. Because it has been well documented in the literature that the printing, general hybridization conditions, and scanning of microarrays introduce systemic effects that are related to the position on the chip, replicates of each of the probes in the array have been spaced throughout the chip.
Primary CD34+ selected human bone marrow cells were obtained through the NHLBI or purchased commercially. The cells were expanded ex vivo using conditions optimized to promote minimal differentiation in order to increase cell numbers as required to generate a useful model system.
DOP of the immunoaffinity-purified DNA topoisomerase II cleavage complexes from the treated and untreated cells was performed exactly as was done with the reference sample. […] Dye-swap experiments were also performed.
GeneSpring (Silicon Genetics, Redwood City, Calif.) was employed as a computational tool to visualize and analyze the data from MLL bcr XEOCHIPS™ with either treated or untreated samples in one channel and the reference sample in the other.
DOP-amplified DNA from the DNA topoisomerase II cleavage complexes in treated or untreated cells on separate chips was labeled with ALEXA FLUOR® 546. The MLL bcr reference sample was labeled with ALEXA FLUOR® 647. The null hypothesis represented by the straight line is that there is no effect at any probe, whereas upward departure points are potential hotspots and downward departure points are potential coldspots.

Experiment [6] addresses T4, DNA topoisomerase II covalent complexes in KG1 cells (Homo sapiens, UniProt P11388).
T4 construct: endogenous in cells; host or cells: KG1 (KG-1) cells
The experiment is described as follows: Modified ICE bioassay in KG1 cells. It is filed as cell-based. Conditions: doxorubicin at 100 μM. As to the method:
The assays were performed on CEM cells (FIG. 7A), K562 cells (FIGS. 7B and 7C), and KG-1 cells (FIG. 7D).
as §1, §2

Experiment [7] addresses T5, DNA topoisomerase II covalent complexes in ex vivo expanded CD34+ cells (Homo sapiens, UniProt P11388).
T5 construct: endogenous in cells; host or cells: primary human bone marrow CD34+ cells, expanded ex vivo
The experiment is described as follows: Modified ICE bioassay in ex vivo expanded CD34+ cells. It counts as cell-based. Conditions: 2 hours, etoposide 100 μM. The procedure: as §1

Experiment [8] has as its system ex vivo expanded CD34+ cells. The experiment is described as follows: Cell viability by Trypan Blue exclusion. Conditions: etoposide 2 hours, same for untreated. It is filed as cell-based, human. The procedure:
as §1
Cell viability assessed by Trypan blue exclusion was ˜70% for both conditions. As predicted in proliferating cells (6), native DNA topoisomerase II covalent complexes were detected in the untreated cells. […] The DNA topoisomerase IIα protein ran higher than its known molecular weight of 170 kDa, which is consistent with the presence of DNA bound to the enzyme.

Where [9] appears, read: 20 μM, additional 10 min at 75° C.

Chain of DNA topoisomerase II cleavage complexes in CEM cells (P11388 whole entry, one chain of several): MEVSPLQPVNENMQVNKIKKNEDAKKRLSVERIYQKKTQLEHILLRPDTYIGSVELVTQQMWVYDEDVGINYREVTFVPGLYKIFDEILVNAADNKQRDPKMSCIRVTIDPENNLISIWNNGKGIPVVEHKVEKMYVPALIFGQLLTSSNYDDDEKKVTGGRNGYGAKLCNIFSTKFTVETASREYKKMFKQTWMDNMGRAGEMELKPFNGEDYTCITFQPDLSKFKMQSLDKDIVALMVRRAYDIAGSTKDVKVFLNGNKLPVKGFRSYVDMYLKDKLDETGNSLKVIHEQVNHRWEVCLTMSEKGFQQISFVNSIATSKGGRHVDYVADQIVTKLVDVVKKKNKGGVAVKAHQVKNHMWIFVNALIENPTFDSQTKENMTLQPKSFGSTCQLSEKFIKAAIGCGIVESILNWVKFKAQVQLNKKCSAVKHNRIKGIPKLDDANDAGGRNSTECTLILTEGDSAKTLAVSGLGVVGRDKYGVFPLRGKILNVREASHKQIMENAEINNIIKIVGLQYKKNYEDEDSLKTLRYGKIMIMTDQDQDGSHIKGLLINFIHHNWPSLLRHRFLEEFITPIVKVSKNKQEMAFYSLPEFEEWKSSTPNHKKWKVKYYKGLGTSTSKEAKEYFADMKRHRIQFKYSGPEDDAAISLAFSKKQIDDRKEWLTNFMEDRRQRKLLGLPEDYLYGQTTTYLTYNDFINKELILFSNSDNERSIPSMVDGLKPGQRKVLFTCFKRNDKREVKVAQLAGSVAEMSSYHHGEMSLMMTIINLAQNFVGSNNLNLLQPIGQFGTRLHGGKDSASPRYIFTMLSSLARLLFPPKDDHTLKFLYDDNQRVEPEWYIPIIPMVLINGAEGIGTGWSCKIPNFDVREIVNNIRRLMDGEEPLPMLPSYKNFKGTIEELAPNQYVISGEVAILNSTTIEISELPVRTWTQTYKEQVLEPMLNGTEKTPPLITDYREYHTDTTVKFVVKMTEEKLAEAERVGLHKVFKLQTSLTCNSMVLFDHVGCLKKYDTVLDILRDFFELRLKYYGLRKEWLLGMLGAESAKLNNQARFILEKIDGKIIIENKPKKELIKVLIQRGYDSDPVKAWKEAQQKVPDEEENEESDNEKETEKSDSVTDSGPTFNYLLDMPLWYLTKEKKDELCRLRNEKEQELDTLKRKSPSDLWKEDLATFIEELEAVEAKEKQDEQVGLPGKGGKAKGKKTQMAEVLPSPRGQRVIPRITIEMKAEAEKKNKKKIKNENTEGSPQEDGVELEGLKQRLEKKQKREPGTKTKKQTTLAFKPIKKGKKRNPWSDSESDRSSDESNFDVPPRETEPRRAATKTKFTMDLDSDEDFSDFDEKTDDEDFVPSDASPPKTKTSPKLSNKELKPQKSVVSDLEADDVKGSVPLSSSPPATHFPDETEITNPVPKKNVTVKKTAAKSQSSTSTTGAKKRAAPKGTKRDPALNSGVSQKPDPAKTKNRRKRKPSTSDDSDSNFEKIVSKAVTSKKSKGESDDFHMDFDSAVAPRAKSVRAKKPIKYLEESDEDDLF
Chain of human DNA topoisomerase IIα (P11388 whole entry): as the sequence (P11388 whole entry, one chain of several) above
T3 sequence (P11388 whole entry, one chain of several): as above
T1 sequence (P11388 whole entry, one chain of several): as above
T5 sequence (P11388 whole entry, one chain of several): as above
T4 sequence (P11388 whole entry, one chain of several): as above
T2 sequence (P11388 whole entry, one chain of several): as above

With `COC1=CC(C2c3cc4c(cc3C(O[C@@H]3O[C@@H]5COC(C)O[C@H]5[C@H](O)[C@H]3O)C3COC(=O)C23)OCO4)=CC(=O)C1=O` (stereo partly drawn) [etoposide quinone], in experiment [1], the “induction of DNA topoisomerase II cleavage complexes” value is listed as “Induction of DNA cleavage complexes was also observed”. The “concentration dependence of induction of DNA topoisomerase II cleavage complexes” value in experiment [1] (2 hours) was “concentration dependent increase”. Besides, the “induction of DNA topoisomerase II cleavage complexes” value in experiment [2] is “significant induction”. Further, in experiment [3] (20 μM, AF-4 intron 3 substrate), the “cleavage at AF-4 intron 3 position 7126 relative to the strongest enzyme-only cleavage in the substrate (position 7114)” value turned out to be 3.4 fold and the “rank in relative intensity of cleavage at AF-4 position 7126 among all cleavage sites” value turned out to be 5th. Also, the “rank of cleavage at MLL bcr position 6588 among cleavage sites in the substrate” value in experiment [3] (20 μM, MLL intron 8 substrate) came out at 3rd. Moreover, the “cleavage at MLL bcr position 6588 over cleavage without drug (enzyme-only)” value in experiment [3] (MLL intron 8 substrate) was 9.8 fold.

Consider `O=c1c(-c2ccc(O)cc2)coc2cc(O)cc(O)c12` [genistein], for which the “real-time PCR products, MLL intron 7-exon 8 amplicon” value in experiment [4] is “real-time PCR products that were detected”. In experiment [5], the “potential coldspots for DNA topoisomerase II cleavage complexes (array probes), treated vs untreated” value is “probes 1-31 (SEQ ID NO: 27), 2-50 (SEQ ID NO: 162), 1-74 (SEQ ID NO: 62), 2-28 (SEQ ID NO: 34), 1-10 (SEQ ID NO: 83), and 1-22 (SEQ ID NO: 71)”; the “potential hotspots for DNA topoisomerase II cleavage complexes (array probes), treated vs untreated” value is “Probes 1-68 (SEQ ID NO: 157), 1-41 (SEQ ID NO: 49), 1-51 (SEQ ID NO: 141), and 1-33 (SEQ ID NO: 132)”.

Take `COc1cccc2c1C(=O)c1c(O)c3c(c(O)c1C2=O)C[C@@](O)(C(=O)CO)C[C@@H]3O[C@H]1C[C@H](N)[C@H](O)[C@H](C)O1` [doxorubicin]: in experiment [1], the “induction of DNA topoisomerase II cleavage complexes” value is “no induction”. For the same compound, the “induction of DNA topoisomerase II cleavage complexes” value in experiment [2] is recorded as “no induction”. In addition, in experiment [3] (0.01 μM), the “cleavage over enzyme-only cleavage at MLL bcr positions 4675 and 4673 and GAS7 position 1238” value is reported as “quantifiably enhanced cleavage”. Moreover, the “effect on cleavage at MLL bcr position 6588 over a range of concentrations” value in experiment [3] (0.01 μM to 0.5 μM) is on record as “dose-dependent increases over enzyme-only cleavage”. Also, the “cleavage at MLL 4675, 4673 and GAS7 1238 at high concentration” value in experiment [3] (20 μM) is reported as “complete diminution”. The “cleavage at AF-4 intron 3 position 7126” value in experiment [3] (20 μM or lower concentrations, AF-4 intron 3 substrate) is given as “no detectable cleavage”. For the same compound, in experiment [3] (AF-4 intron 3 substrate), the “concentration at which cleavage at AF-4 positions 7111, 7114 and 7119 began to decrease” value was 0.5 µM; the “effect on cleavage at AF-4 intron 3 positions 7111, 7114 and 7119 over a range of concentrations” value was “dose-dependent increases in cleavage stimulation over enzyme-only cleavage”. In experiment [3] (MLL and GAS7 substrates), the “concentration at which cleavage enhancement at MLL 4675, 4673 and GAS7 1238 began to decrease” value came to 0.1 µM. Moreover, in experiment [3] (MLL intron 8 substrate), the “concentration at which cleavage enhancement at MLL bcr position 6588 began to decrease” value was 2.5 µM and the “cleavage at MLL bcr position 6588 over cleavage without drug (enzyme-only)” value turned out to be 0.4 fold. Further, the “effect on cleavage at MLL bcr positions 6587 and 6589” value in experiment [3] (all concentrations tested) is given as “only catalytic inhibition”. Besides, the “induction of DNA topoisomerase II covalent complexes” value in experiment [6] was “induced DNA II covalent complexes”.

In the case of `COc1cc([C@@H]2c3cc4c(cc3[C@@H](O[C@@H]3O[C@@H]5CO[C@@H](C)O[C@H]5[C@H](O)[C@H]3O)[C@H]3COC(=O)[C@H]23)OCO4)cc(OC)c1O` [etoposide], in experiment [1], the “induction of DNA topoisomerase II cleavage complexes” value is reported as “Induction of DNA cleavage complexes was also observed”. Further, in experiment [7], the “formation of DNA topoisomerase II covalent complexes versus untreated cells” value is reported as “increased formation of DNA topoisomerase II covalent complexes”. Moreover, the “induction of DNA topoisomerase II cleavage complexes” value in experiment [2] was “significant induction”. Moreover, in experiment [3] (setting [9]), the “heat stability of cleavage at AF-4 intron 3 position 7126” value is “especially heat-stable” and the “heat stability of cleavage complexes at MLL bcr position 6588” value is reported as “remained detectable after heating”. The “cleavage at MLL bcr position 6588 over cleavage without drug (enzyme-only)” value in experiment [3] (MLL intron 8 substrate) amounted to 7.9 fold. Moreover, the “induction of DNA topoisomerase II covalent complexes” value in experiment [6] is reported as “induced DNA II covalent complexes”. In experiment [5], the “potential coldspots for DNA topoisomerase II cleavage complexes (array probes), treated vs untreated” value was “probes 2-28, 1-30, 1-18, and 1-15”; the “potential hotspots for DNA topoisomerase II cleavage complexes (array probes), treated vs untreated” value was “probes 1-41 and 1-51”. In addition, the “cell viability assessed by Trypan blue exclusion” value in experiment [8] is recorded as ~70%.

As to `COc1cc([C@@H]2c3cc4c(cc3[C@@H](O[C@@H]3O[C@@H]5CO[C@@H](C)O[C@H]5[C@H](O)[C@H]3O)[C@H]3COC(=O)[C@H]23)OCO4)cc(O)c1O` [etoposide catechol], in experiment [7], the “formation of DNA topoisomerase II covalent complexes versus untreated cells” value was “increased formation of topoisomerase-DNA cleavage complexes”. Moreover, in experiment [2], the “amount of cleavage complexes induced compared with etoposide” value is on record as “comparable in amount to the parent drug” and the “induction of DNA topoisomerase II cleavage complexes” value is listed as “significant induction”. In experiment [3] (20 μM, AF-4 intron 3 substrate), the “cleavage at AF-4 intron 3 position 7126 relative to the strongest enzyme-only cleavage in the substrate (position 7114)” value is listed as 5.9 fold and the “rank in relative intensity of cleavage at AF-4 position 7126 among all cleavage sites” value is reported as “first”. In experiment [3] (MLL intron 8 substrate), the “cleavage at MLL bcr position 6588 over cleavage without drug (enzyme-only)” value stood at 4.4 fold.

The values are drawn from patent US8642265B2, “Compositions and methods for the detection of topoisomerase II complexes with DNA” (The Children's Hospital of Philadelphia, priority 2004, dated 2014).
